The values below come from patent US8664380B2, “Heterocyclic compound and use thereof” (Takeda Pharmaceutical Company Limited, priority 2008, dated 2014).

Structures can show the parent of a compound that is named as a salt.

The target in one assay is T1, Human renin (Homo sapiens, UniProt P00797).
T1 sequence (P00797 67-406): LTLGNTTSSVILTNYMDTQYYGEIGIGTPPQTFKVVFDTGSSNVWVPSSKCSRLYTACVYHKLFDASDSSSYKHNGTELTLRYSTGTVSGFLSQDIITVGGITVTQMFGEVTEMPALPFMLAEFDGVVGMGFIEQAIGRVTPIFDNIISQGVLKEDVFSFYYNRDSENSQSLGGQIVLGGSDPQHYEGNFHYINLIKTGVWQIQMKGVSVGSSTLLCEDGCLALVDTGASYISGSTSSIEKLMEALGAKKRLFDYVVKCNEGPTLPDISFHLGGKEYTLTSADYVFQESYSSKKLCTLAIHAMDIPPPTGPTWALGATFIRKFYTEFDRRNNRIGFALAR
Description: Human renin inhibition; angiotensin I formed from angiotensinogen quantified by EIA. Particulars: for inhibition at 0.1 µM: read-out: Human renin inhibitory activity, inhibitory activity (%) at 0.1 μM.

A further assay deals with plasma renin activity. Briefly: Ex vivo plasma renin activity (PRA) test after oral administration. Particulars: Macaca fascicularis, po, 4 h, read-out: Macaca fascicularis plasma renin activity, PPA inhibitory activity (%, n = 3-7). It counts as in vivo, Macaca fascicularis. On the procedure:
Male macaca fascicularis was used. […] PRA was calculated by the following formula.

Description for Human renin: As a substrate for renin activity measurement, the angiotensinogen mentioned in (5) above was used. 1 μl each of the test compound (containing 100% DMSO) was added to each well of a 384-well plate (ABgene). Renin was diluted with a buffer solution for reaction (20 mM sodium phosphate (pH 7.4)) to a concentration of 57 pM, and 14 μl each of the dilution was added to each well. The dilution was left to stand at 37° C. for 10 min, and then 5 μl of each of a 6 μM solution of substrate angiotensinogen was added to each well to initiate the reaction. […] The amount of angiotensin I produced by an enzyme reaction was quantified by Enzyme Immuno Assay (EIA) described below.
Anti-angiotensin I antibody (Peninsula Laboratories Inc.) diluted 5,000-fold with PBS was added to each well of a 384 well black plate (Nalge Nunc International Co., Ltd.) by 25 μl, and left standing overnight at 4° C. to immobilize the antibody in the plate. The antibody solution was removed, PBS solution (100 μl) containing 1% BSA was added to each well, and the mixture was left standing at room temperature for 2 hr for blocking. The blocking solution was removed, and each well was washed 5 times with 100 μl of 0.05% Tween20-PBS. […] Then, a biotinated angiotensin I solution (AnaSpec, 15 μl) prepared to 1.6 nM with a buffer [20 mM tris-hydrochloric acid (pH 7.4), 150 mM sodium chloride, 0.01% BSA, 0.05% Tween20] was added to each well, mixed with a plate mixer and left standing at room temperature for 1 hr. The solutions were removed from each well, and each well was washed 5 times with 100 μl of 0.05% Tween20-PBS. Horseradish peroxydase Streptavidin (PIERCE Biotechnology inc., 25 μl) diluted to 100 ng/ml with a buffer [20 mM tris-hydrochloric acid (pH 7.4), 150 mM sodium chloride, 0.1% BSA, 0.05% Tween 20] was added to each well and the mixture was left standing at room temperature for 30 min. The solutions were removed from each well, and each well was washed 5 times with 100 μl of 0.05% Tween20-PBS. SuperSignal ELISA femto Maximum Sensitivity Substrate (PIERCE Biotechnology Inc.) was added by 25 μl and luminescence intensity was measured by EnVision (Perkin Elmer Inc.). An analytical curve was drawn from the luminescence intensity of wells containing an angiotensin I standard solution, and the amount of angiotensin I produced by an enzyme reaction was calculated and used as an index of renin activity.

As to `COCCCCn1c(C(=O)N(CC(C)C)[C@@H]2CNC[C@H](C(=O)N3CCOCC3)C2)cc2ccccc21` [Example 3, 1-(4-methoxybutyl)-N-(2-methylpropyl)-N-[(3S,5R)-5-(morpholin-4-ylcarbonyl)piperidin-3-yl]-1H-indole-2-carboxamide hydrochloride], the inhibition at 0.1 µM on Human renin turned out to be 96%.
On the same count and under the same terms, in the case of `COCCOCc1c(C(=O)N(CC(C)C)[C@@H]2CNC[C@H](C(=O)N3CCOCC3)C2)nc2ccccn12` [Example 4, 3-[(2-methoxyethoxy)methyl]-N-(2-methylpropyl)-N-[(3S,5R)-5-(morpholin-4-ylcarbonyl)piperidin-3-yl]imidazo[1,2-a]pyridine-2-carboxamide dihydrochloride] it was 96%.
For the molecule `COCCCCn1c(C(=O)N(CC(C)C)[C@@H]2CNC[C@H](C(=O)OCc3oc(=O)oc3C)C2)nc2ccccc21` [Example 7, (5-methyl-2-oxo-1,3-dioxol-4-yl)methyl (3R,5S)-5-[{[1-(4-methoxybutyl)-1H-benzimidazol-2-yl]carbonyl}(2-methylpropyl)amino]piperidine-3-carboxylate dihydrochloride], the inhibition at 1 mg/kg in the assay on plasma renin activity turned out to be 93%.
In the case of `COCCCCn1c(C(=O)N(CC(C)C)[C@@H]2CNC[C@H](C(=O)N3CCOCC3)C2)nc2ccccc21` [Example 10, 1-(4-methoxybutyl)-N-(2-methylpropyl)-N-[(3S,5R)-5-(morpholin-4-ylcarbonyl)piperidin-3-yl]-1H-benzimidazole-2-carboxamide dihydrochloride], the inhibition at 1 mg/kg in the assay with plasma renin activity is 72%. Also, the “Human renin inhibitory activity, inhibitory activity (%) at 0.1 μM” value at Human renin (0.1 μM test compound, human renin, substrate human angiotensinogen, 37° C. 30 min) turned out to be 97%.
For the molecule `COCCCCn1c(C(=O)N(CC(C)C)[C@@H]2CNC[C@H](C(=O)N3CCOCC3)C2)nc2ccc(F)cc21` [Example 11, 6-fluoro-1-(4-methoxybutyl)-N-(2-methylpropyl)-N-[(3S,5R)-5-(morpholin-4-ylcarbonyl)piperidin-3-yl]-1H-benzimidazole-2-carboxamide dihydrochloride], in the assay on plasma renin activity, the inhibition at 1 mg/kg worked out at 89%.
With `COCCCCn1c(C(=O)N(CC(C)C)[C@@H]2CNC[C@H](C(=O)N3CCOCC3)C2)nc2ccc(F)cc21` [Example 12, 6-fluoro-1-(4-methoxybutyl)-N-(2-methylpropyl)-N-[(3S,5R)-5-(morpholin-4-ylcarbonyl)piperidin-3-yl]-1H-benzimidazole-2-carboxamide dihydrochloride], at Human renin, the inhibition at 0.1 µM came to 97%.
Take `COCCCCn1c(C(=O)N(CC(C)C)[C@@H]2CNC[C@H](C(=O)N3CCCC3)C2)nc2cc(F)ccc21` [Example 18, 5-fluoro-1-(4-methoxybutyl)-N-(2-methylpropyl)-N-[(3S,5R)-5-(pyrrolidin-1-ylcarbonyl)piperidin-3-yl]-1H-benzimidazole-2-carboxamide dihydrochloride]: the inhibition at 1 mg/kg in the assay with plasma renin activity stood at 89%.
For `COCCCCn1c(C(=O)N(CC(C)C)[C@@H]2CNC[C@H](C(=O)N3CCCCC3)C2)nc2ccccc21` [Example 21, 1-(4-methoxybutyl)-N-(2-methylpropyl)-N-[(3S,5R)-5-(piperidin-1-ylcarbonyl)piperidin-3-yl]-1H-benzimidazole-2-carboxamide dihydrochloride], in the assay on plasma renin activity, the inhibition at 1 mg/kg was found to be 85%.
As to `COCCCCn1c(C(=O)N(CC(C)C)[C@@H]2CNC[C@H](C(N)=O)C2)nc2ccccc21` [Example 25, N-[(3S,5R)-5-carbamoylpiperidin-3-yl]-1-(4-methoxybutyl)-N-(2-methylpropyl)-1H-benzimidazole-2-carboxamide dihydrochloride], the inhibition at 1 mg/kg with plasma renin activity amounted to 79%. In addition, the inhibition at 0.1 µM on Human renin amounted to 98%.
`COCCCCn1c(C(=O)N(CC(C)C)[C@@H]2CNC[C@H](C(=O)O)C2)nc2ccccc21` [Example 33, (3R,5S)-5-[{[1-(4-methoxybutyl)-1H-benzimidazol-2-yl]carbonyl}(2-methylpropyl)amino]piperidine-3-carboxylic acid dihydrochloride]: the inhibition at 1 mg/kg in the assay with plasma renin activity was 77%.
As for `COCCCCn1c(C(=O)N(CC(C)C)[C@@H]2CNC[C@H](C(C)(C)O)C2)nc2ccccc21` [Example 38, N-[(3S,5R)-5-(1-hydroxy-1-methylethyl)piperidin-3-yl]-1-(4-methoxybutyl)-N-(2-methylpropyl)-1H-benzimidazole-2-carboxamide dihydrochloride], the inhibition at 0.1 µM at Human renin worked out at 98%.
On to `COCCCCn1c(C(=O)N(CC(C)C)[C@@H]2CNC[C@H](CO)C2)nc2ccccc21` [Example 40, N-[(3S,5R)-5-(hydroxymethyl)piperidin-3-yl]-1-(4-methoxybutyl)-N-(2-methylpropyl)-1H-benzimidazole-2-carboxamide dihydrochloride], for which the inhibition at 1 mg/kg with plasma renin activity came out at 75%. Also, the inhibition at 0.1 µM on Human renin amounted to 97%.
Turning to `COCCCCn1c(C(=O)N(CC(C)C)[C@@H]2CNC[C@H](C(C)O)C2)nc2ccccc21` (stereo partly drawn) [Example 42, N-[(3S,5R)-5-(1-hydroxyethyl)piperidin-3-yl]-1-(4-methoxybutyl)-N-(2-methylpropyl)-1H-benzimidazole-2-carboxamide dihydrochloride], the inhibition at 1 mg/kg in the assay on plasma renin activity was 70%.
In the case of `COCCCCn1c(C(=O)N(CC(C)C)[C@@H]2CNC[C@H](C(O)COC)C2)nc2ccccc21` (stereo partly drawn) [Example 48, N-[(3S,5R)-5-(1-hydroxy-2-methoxyethyl)piperidin-3-yl]-1-(4-methoxybutyl)-N-(2-methylpropyl)-1H-benzimidazole-2-carboxamide dihydrochloride], in the assay on plasma renin activity, the inhibition at 1 mg/kg came to 78%. Also, the inhibition at 0.1 µM at Human renin stood at 97%.
For the molecule `COCCCCn1c(C(=O)N(CC(C)C)[C@@H]2CNC[C@H](C(=O)N3CCOCC3)C2)nc2ccccc21` [Example 49, 1-(4-methoxybutyl)-N-(2-methylpropyl)-N-[(3S,5R)-5-(morpholin-4-ylcarbonyl)piperidin-3-yl]-1H-benzimidazole-2-carboxamide methanesulfonate], at Human renin, the inhibition at 0.1 µM is 97%.
Take `COCCCCn1c(C(=O)N(CC(C)C)[C@@H]2CNC[C@H](C(=O)N3CCOCC3)C2)nc2ccc(OC)cc21` [Example 60, 6-methoxy-1-(4-methoxybutyl)-N-(2-methylpropyl)-N-{(3S,5R)-5-(morpholin-4-ylcarbonyl)piperidin-3-yl}-1H-benzimidazole-2-carboxamide dihydrochloride]: the inhibition at 1 mg/kg with plasma renin activity was determined as 85%.
Still for that read-out and setting: then `COCCCCn1c(C(=O)N(CC(C)C)[C@@H]2CNC[C@H](C(=O)N3CCCC3)C2)nc2ccc(OC)cc21` [Example 62, 6-methoxy-1-(4-methoxybutyl)-N-(2-methylpropyl)-N-{(3S,5R)-5-(pyrrolidin-1-ylcarbonyl)piperidin-3-yl}-1H-benzimidazole-2-carboxamide dihydrochloride], with 75%.
On to `COCCCCn1c(C(=O)N(CC(C)C)[C@@H]2CNC[C@H]([C@@H](O)COC)C2)nc2ccccc21` [Example 73-1, N-{(3S,5R)-5-[(1R)-1-hydroxy-2-methoxyethyl]piperidin-3-yl}-1-(4-methoxybutyl)-N-(2-methylpropyl)-1H-benzimidazole-2-carboxamide dihydrochloride], for which, in the assay on plasma renin activity, the inhibition at 1 mg/kg came to 77%. Further, at Human renin, the inhibition at 0.1 µM was found to be 96%.
For `COCCCCn1c(C(=O)N(CC(C)C)[C@@H]2CNC[C@H]([C@H](O)COC)C2)nc2ccccc21` [Example 73-2, N-{(3S,5R)-5-[(1S)-1-hydroxy-2-methoxyethyl]piperidin-3-yl}-1-(4-methoxybutyl)-N-(2-methylpropyl)-1H-benzimidazole-2-carboxamide dihydrochloride], in that order: 90% and 96%.
Turning to `CCC(O)[C@H]1CNC[C@@H](N(CC(C)C)C(=O)c2nc3ccccc3n2CCCCOC)C1` (stereo partly drawn) [Example 76, N-[(3S, 5R)-5-(1-hydroxypropyl)piperidin-3-yl]-1-(4-methoxybutyl)-N-(2-methylpropyl)-1H-benzimidazole-2-carboxamide dihydrochloride], the inhibition at 1 mg/kg in the assay on plasma renin activity stood at 79%.
`COCCCn1c(C(=O)N(CC(C)C)[C@@H]2CNC[C@H](C(=O)N3CCOCC3)C2)nc2ccccc21` [Example 85, 1-(3-methoxypropyl)-N-(2-methylpropyl)-N-[(3S, 5R)-5-(morpholin-4-ylcarbonyl)piperidin-3-yl]-1H-benzimidazole-2-carboxamide 1/2 sulfate]: the inhibition at 0.1 µM on Human renin was found to be 97%.
The same measure, in the same setting: then `CC(C)CN(C(=O)c1nc2ccccn2c1COc1ccccc1)[C@@H]1CNC[C@H](C(=O)N2CCOCC2)C1` [Example 117, N-(2-methylpropyl)-N-[(3S, 5R)-5-(morpholin-4-ylcarbonyl)piperidin-3-yl]-3-(phenoxymethyl)imidazo[1,2-a]pyridine-2-carboxamide dihydrochloride], with 98%.
`COCCCCn1c(C(=O)N(CC2CC2)[C@@H]2CNC[C@H](C(=O)N3CCOCC3)C2)nc2ccccc21` [Example 253, N-(cyclopropylmethyl)-1-(4-methoxybutyl)-N-[(3S,5R)-5-(morpholin-4-ylcarbonyl)piperidin-3-yl]-1H-benzimidazole-2-carboxamide dihydrochloride]: the inhibition at 1 mg/kg in the assay with plasma renin activity came to 77%.
Same read-out and setting: then `CCCN(C(=O)c1nc2ccccc2n1CCCCOC)[C@@H]1CNC[C@H](C(=O)N2CCOCC2)C1` [Example 255, 1-(4-methoxybutyl)-N-[(3S,5R)-5-(morpholin-4-ylcarbonyl)piperidin-3-yl]-N-propyl-1H-benzimidazole-2-carboxamide dihydrochloride], with 84%.
